Measurements as given in PMC10006169, “A phase I trial of LXS196, a protein kinase C (PKC) inhibitor, for metastatic uveal melanoma” (British Journal of Cancer, 2023).

System: patients with MUM
Test: Adverse events regardless of study drug relationship
Type: in vivo, human
Procedure: Routine safety assessments, including laboratory assessments, physical examinations, vital signs and electrocardiograms (ECGs), were conducted at regular intervals throughout the study and more frequently as needed following patient assessment by the treating physician. Adverse events (AEs) were assessed continuously according to the National Cancer Institute Common Terminology Criteria for Adverse Events (NCI-CTCAE) v4.03.

CC1(N)CCN(c2cccnc2NC(=O)c2nc(-c3ncccc3C(F)(F)F)cnc2N)CC1 [LXS196]
2 (66.7) n (%): Diarrhoea, all grades (100 mg QD) | Nausea, all grades (100 mg QD) | Vomiting, all grades (100 mg QD)
0 n (%): ALT increased, all grades (100 mg QD) | ALT increased, grade ≥3 (100 mg QD) | AST increased, all grades (100 mg QD) | AST increased, grade ≥3 (100 mg QD) | Abdominal pain upper, all grades (100 mg QD) | Abdominal pain upper, grade ≥3 (100 mg QD) | Asthenia, all grades (100 mg QD) | Asthenia, grade ≥3 (100 mg QD) | Blood creatinine increased, all grades (100 mg QD) | Blood creatinine increased, grade ≥3 (100 mg QD) | Constipation, grade ≥3 (100 mg QD) | Decreased appetite, all grades (100 mg QD) | Decreased appetite, grade ≥3 (100 mg QD) | Dermatitis acneiform, all grades (100 mg QD) | Dermatitis acneiform, grade ≥3 (100 mg QD) | Diarrhoea, grade ≥3 (100 mg QD) | Dry skin, all grades (100 mg QD) | Dry skin, grade ≥3 (100 mg QD) | Fatigue, all grades (100 mg QD) | Fatigue, grade ≥3 (100 mg QD) | Hypotension, all grades (100 mg QD) | Hypotension, grade ≥3 (100 mg QD) | Nasopharyngitis, all grades (100 mg QD) | Nasopharyngitis, grade ≥3 (100 mg QD) | Nausea, grade ≥3 (100 mg QD) | Neutropenia, all grades (100 mg QD) | Neutropenia, grade ≥3 (100 mg QD) | Oedema peripheral, grade ≥3 (100 mg QD) | Patients with ≥1 AE, grade ≥3 (100 mg QD) | Rash, all grades (100 mg QD) | Rash, grade ≥3 (100 mg QD) | Vomiting, grade ≥3 (100 mg QD) | ALT increased, grade ≥3 (200 mg BID) | AST increased, grade ≥3 (200 mg BID) | Abdominal pain upper, all grades (200 mg BID) | Abdominal pain upper, grade ≥3 (200 mg BID) | Asthenia, grade ≥3 (200 mg BID) | Blood creatinine increased, grade ≥3 (200 mg BID) | Constipation, grade ≥3 (200 mg BID) | Decreased appetite, grade ≥3 (200 mg BID) | Dermatitis acneiform, grade ≥3 (200 mg BID) | Diarrhoea, grade ≥3 (200 mg BID) | Dry skin, grade ≥3 (200 mg BID) | Fatigue, all grades (200 mg BID) | Fatigue, grade ≥3 (200 mg BID) | Hypotension, all grades (200 mg BID) | Hypotension, grade ≥3 (200 mg BID) | Nasopharyngitis, grade ≥3 (200 mg BID) | Nausea, grade ≥3 (200 mg BID) | Neutropenia, grade ≥3 (200 mg BID) | Oedema peripheral, grade ≥3 (200 mg BID) | Rash, all grades (200 mg BID) | Rash, grade ≥3 (200 mg BID) | Vomiting, all grades (200 mg BID) | Vomiting, grade ≥3 (200 mg BID) | ALT increased, grade ≥3 (200 mg QD) | AST increased, all grades (200 mg QD) | AST increased, grade ≥3 (200 mg QD) | Abdominal pain upper, all grades (200 mg QD) | Abdominal pain upper, grade ≥3 (200 mg QD) | Asthenia, grade ≥3 (200 mg QD) | Blood creatinine increased, grade ≥3 (200 mg QD) | Constipation, grade ≥3 (200 mg QD) | Decreased appetite, grade ≥3 (200 mg QD) | Dermatitis acneiform, all grades (200 mg QD) | Dermatitis acneiform, grade ≥3 (200 mg QD) | Diarrhoea, grade ≥3 (200 mg QD) | Dry skin, all grades (200 mg QD) | Dry skin, grade ≥3 (200 mg QD) | Fatigue, all grades (200 mg QD) | Fatigue, grade ≥3 (200 mg QD) | Hypotension, all grades (200 mg QD) | Hypotension, grade ≥3 (200 mg QD) | Nasopharyngitis, all grades (200 mg QD) | Nasopharyngitis, grade ≥3 (200 mg QD) | Neutropenia, all grades (200 mg QD) | Neutropenia, grade ≥3 (200 mg QD) | Oedema peripheral, grade ≥3 (200 mg QD) | Rash, all grades (200 mg QD) | Rash, grade ≥3 (200 mg QD)
6 (100) n (%): Patients with ≥1 AE, all grades (200 mg BID)
2 (50.0) n (%): Diarrhoea, all grades (200 mg QD) | Nausea, all grades (200 mg QD) | Vomiting, all grades (200 mg QD)
4 (100) n (%): Patients with ≥1 AE, all grades (200 mg QD)
2 (33.3) n (%): Oedema peripheral, all grades (200 mg BID)
3 (100) n (%): Patients with ≥1 AE, all grades (100 mg QD)
3 (50.0) n (%): Blood creatinine increased, all grades (200 mg BID) | Diarrhoea, all grades (200 mg BID) | Nausea, all grades (200 mg BID) | Patients with ≥1 AE, grade ≥3 (200 mg BID)
1 (25.0) n (%): ALT increased, all grades (200 mg QD) | Asthenia, all grades (200 mg QD) | Blood creatinine increased, all grades (200 mg QD) | Decreased appetite, all grades (200 mg QD) | Nausea, grade ≥3 (200 mg QD) | Oedema peripheral, all grades (200 mg QD) | Vomiting, grade ≥3 (200 mg QD)
3 (75.0) n (%): Constipation, all grades (200 mg QD) | Patients with ≥1 AE, grade ≥3 (200 mg QD)
1 (33.3) n (%): Constipation, all grades (100 mg QD) | Oedema peripheral, all grades (100 mg QD)
1 (16.7) n (%): ALT increased, all grades (200 mg BID) | AST increased, all grades (200 mg BID) | Asthenia, all grades (200 mg BID) | Constipation, all grades (200 mg BID) | Decreased appetite, all grades (200 mg BID) | Dermatitis acneiform, all grades (200 mg BID) | Dry skin, all grades (200 mg BID) | Nasopharyngitis, all grades (200 mg BID) | Neutropenia, all grades (200 mg BID)
